Results published in patent US20080312167A1, “4'' Amino Linked Macrolides Useful for the Treatment of Microbial Infections” (priority 2005, published 2008).

Assays:
Experiment in all cases: MIC, standard broth dilution method in microtitre
Assay type in all cases: cell-based
[1] = system: Haemophylus influenzae
Protocol: (§1) Using a standard broth dilution method in microtitre, compounds were tested for antibacterial activity.
(§2) The MIC (μg/ml) of test compounds against various organisms was determined including: Staphylococcus aureus, Streptococcus pneumoniae, Streptococcus pyogenes, Enterococcus faecalis, Haemophylus influenzae, Moraxella catarrhalis.

[2] = system: Moraxella catarrhalis
Protocol: as §1, §2

[3] = system: sensitive Staphylococcus aureus
Protocol: as §1, §2

[4] = system: Enterococcus faecalis
Protocol: as §1, §2

For “4″(S)—N-(3-{2-[2-(3-Carboxy-7-chloro-1-cyclopropyl-4-oxo-1,4-dihydro-quinolin-6-ylamino)-ethoxy]-ethoxy}-propionyl}-azithromycin [Example 3]”, the MIC [1] was at most 0.125 µg/mL.
With `CC[C@H]1OC(=O)[C@H](C)[C@@H](O[C@H]2C[C@@](C)(OC)[C@H](NC(=O)CCOCCOCCCc3ccc4c(c3)c(=O)c(C(=O)O)cn4CC)[C@H](C)O2)[C@H](C)[C@@H](O[C@@H]2O[C@H](C)C[C@H](N(C)C)[C@H]2O)[C@](C)(O)C[C@@H](C)CN(C)[C@H](C)[C@@H](O)[C@]1(C)O` (single isomer, unassigned) [Example 4] the MIC [2] was at most 2 µg/mL.
Molecule `CC[C@H]1OC(=O)[C@H](C)[C@@H](O[C@H]2C[C@@](C)(OC)[C@H](NC(=O)CCOCCOCCCc3ccc4c(c3)c(=O)c(C(=O)O)cn4CCOC)[C@H](C)O2)[C@H](C)[C@@H](O[C@@H]2O[C@H](C)C[C@H](N(C)C)[C@H]2O)[C@](C)(O)C[C@@H](C)CN(C)[C@H](C)[C@@H](O)[C@]1(C)O` (single isomer, unassigned) [Example 6] has an MIC [2] of at most 2 µg/mL and an MIC [3] of at most 0.5 µg/mL.
With `CC[C@H]1OC(=O)[C@H](C)[C@@H](O[C@H]2C[C@@](C)(OC)[C@@H](NC(=O)CCOCCOCCCc3ccc4c(c3)c(=O)c(C(=O)O)cn4CC)[C@H](C)O2)[C@H](C)[C@@H](O[C@@H]2O[C@H](C)C[C@H](N(C)C)[C@H]2O)[C@](C)(O)C[C@@H](C)CN(C)[C@H](C)[C@@H](O)[C@]1(C)O` (single isomer, unassigned) [Example 7] the MIC [4] was at most 0.125 µg/mL, the MIC [2] was at most 2 µg/mL and the MIC [3] was at most 0.5 µg/mL.
With `CC[C@H]1OC(=O)[C@H](C)[C@@H](O[C@H]2C[C@@](C)(OC)[C@@H](NC(=O)CCOCCOCCCc3ccc4c(c3)c(=O)c(C(=O)O)cn4C3CC3)[C@H](C)O2)[C@H](C)[C@@H](O[C@@H]2O[C@H](C)C[C@H](N(C)C)[C@H]2O)[C@](C)(O)C[C@@H](C)CN(C)[C@H](C)[C@@H](O)[C@]1(C)O` (single isomer, unassigned) [Example 8] the MIC [4] was at most 0.125 µg/mL, the MIC [2] was at most 2 µg/mL and the MIC [3] was at most 0.5 µg/mL.
Molecule `CC[C@H]1OC(=O)[C@H](C)[C@@H](O[C@H]2C[C@@](C)(OC)[C@H](NC(=O)CCOCCOCCCc3ccc4c(c3)c(=O)c(C(=O)O)cn4C3CC3)[C@H](C)O2)[C@H](C)[C@@H](O[C@@H]2O[C@H](C)C[C@H](N(C)C)[C@H]2O)[C@](C)(O)C[C@@H](C)CN(C)[C@H](C)[C@@H](O)[C@]1(C)O` (single isomer, unassigned) [Example 9] has an MIC [2] of at most 2 µg/mL and an MIC [3] of at most 0.5 µg/mL.
